Data as given in patent publication US20080268073A1, “CERAMIDASE INHIBITOR” (TAKARA BIO INC., priority 2003, published 2008).

System: neutral/alkaline RatBrain Ceramidase
Assay: Inhibitory activity on neutral/alkaline RatBrain Ceramidase (Reference Example 1, NBD-C12-Ceramide, HPLC)
Format: biochemical, rat
Details: concentration of 5 μM; NBD-C12-Ceramide 0.02 mM
Experimental: As neutral/alkaline ceramidase, two kinds of ceramidase derived from Pseudomonas aeruginosa strain AN17 and ceramidase derived from a rat brain were used.
On the other hand, a crude enzyme solution of rat brain-derived ceramidase was prepared in the following manner. First, two pieces (3.5 g) of rat brain tissues were homogenized in 30 mL of 0.25 M sucrose solution with a Potter-Elvehjem homogenizer. The resulting homogenate was centrifuged at 700×g for 10 minutes, then the supernatant was centrifuged at 25,000×g for 10 minutes, and the resulting supernatant was further centrifuged at 100,000×g for 60 minutes to give precipitates which were then suspended in 3 mL of 25 mM Tris-HCl buffer (pH 8.0). Nine milliliters of 25 mM Tris-HCl buffer (pH 8.0) comprising 0.5% Triton X-100 was added to the resulting suspension which was then subjected to extraction by leaving the suspension on ice for 2 hours. […]
The inhibitory activity on the neutral/alkaline RatBrain Ceramidase was determined in the following manner. […] The reaction was terminated by adding 75 microliters of methanol, and 50 microliters of aliquot of the reaction solution was analyzed by HPLC.
HPLC analysis was carried out in the following manner. […] Detection was carried out with a fluorescence detector at an excitation light of 465 nm and a fluorescent light of 535 nm. […]

CCCC/C=C/CCCC(O)C(CCCCCCCCCCCCCCCC/C=C/CC(=O)O)C(CO)C(C)O (single isomer, unassigned) [purified substance]
inhibition of the activity of neutral/alkaline ceramidase derived from a rat brain: 50%
